Tests used:
Format in all cases: cell-based
Whole human saliva [1] = assay: In vitro malodor study: microbial growth by OD610; settings: pooled whole human saliva 2% in growth medium, incubated overnight, n=6
Experimental: (§1) An in vitro malodor study was conducted to evaluate the effect of various combinations of inulin and xylitol with zinc on oral malodor. Malodor is a combination of hydrogen sulfide and other volatile compounds. Microbial growth as measured by OD610, and fermentation, as measured by pH (confounding variables that impact oral malodor) were also evaluated.
(§2) Whole human saliva was collected from four donors, pooled and suspended in growth medium at a 2% final concentration. Stock, simple solutions of inulin, xylitol, and zinc citrate were prepared in growth medium and incorporated according to the experiment design specified in Table 3 (below). Treatment suspensions were incubated overnight in sterilized headspace vials.
(§3) Malodor (i.e., hydrogen sulfide and other volatile compounds) in the culture vial headspace was quantified using validated procedures on Voice200ultra SIFT-MS (Syft Technologies, Christchurch, New Zealand). Following SIFT-MS analysis, microbial growth was quantified using optical density at λ=610 nm.

Whole human saliva [2] = assay: In vitro malodor study: fermentation measured by pH; settings: pooled whole human saliva 2% in growth medium, incubated overnight, n=6
Experimental: as §1, §2
The pH was measured using a standard pH meter by following validated procedures. Statistical significance of differences for all parameters was determined using one-way ANOVA test at 95% confidence level with a Tukey pairwise comparison test. Microbial growth and pH were used to stratify the treatments for hydrogen sulfide statistical analysis.

Whole human saliva [3] = assay: In vitro malodor study: hydrogen sulfide in headspace by SIFT-MS; settings: pooled whole human saliva 2% in growth medium, incubated overnight, n=6; groups stratified by growth and pH
Experimental: as §1, §2, §3
Hydrogen sulfide in headspace of salivary inoculum was quantified using SIFT-MS validated procedure.

Structure (SMILES)	Microbial growth as observed by OD610, Mean (Whole human saliva [1])	pH, Mean (Whole human saliva [2])	Hydrogen sulfide in headspace of salivary inoculum, Mean (Whole human saliva [3]) [ppb]
O=C([O-])CC(O)(CC(=O)[O-])C(=O)[O-].O=C([O-])CC(O)(CC(=O)[O-])C(=O)[O-].[Zn+2].[Zn+2].[Zn+2] [Example 5, zinc citrate]	0.1407	6.5948	21.86
OC[C@@H](O)[C@H](O)[C@@H](O)CO [Example 4, xylitol]	0.4182	5.9067	2243

Reference: patent publication US11918675B2, “Oral care compositions” (priority 2019, dated 2024)
